# Paper PMC5036617 (Toxicological Sciences, 2016)
# Where two headings read alike, the source gives them in different places.
# Legend:
# HepG2 cells [1] = assay: Cellular ATP content of HepG2 cells in glucose or galactose medium (ATP bioluminescent assay); type: cell-based; conditions: 2 h; for EC50ATPglu/EC50ATPgal: ratio ≥ 2 identifies a mitochondrial liability; for EC50: Homo sapiens, concentration reducing cellular ATP content by 50%
# Protocol: Metabolic switching of cells was performed based on work previously described by ([[…] et al., 2015]). Briefly, 24 h prior to metabolic switch, HepG2 cells were collected by trypsinization and seeded on a collagen-coated flat-bottomed 96-well plate (20 000 cells/50 μl/well) and incubated (37°C, 5% CO2) overnight. […] Flutamide, 2-hydroxyflutamide and bicalutamide stock solutions were prepared in DMSO and diluted further in the appropriate medium. Compounds (50 μl) were then added to each well and cells were incubated for 2 h (37 °C, 5% CO2). All assays used ≤ 0.5% DMSO as a vehicle control. […] LDH content of the cells and supernatant was assessed using a cytotoxicity detection kit according to the manufacturer's instructions. ATP content was assessed using an ATP bioluminescent assay according to the manufacturer's instructions. Briefly, 10 μl of cell lysate or ATP standard curve solutions were added to a white-walled 96-well plate before addition of 40 μl ATP assay mix. Protein content of all wells was then assessed using a BCA assay applied to 10 μl of cell lysate and standards. LDH (490 nm), BCA (570 nm), and ATP assay luminescence were then measured using a plate reader (Varioskan, Thermo Scientific). ATP content readings were normalized to protein content. Experiments were conducted in a minimum of triplicate to ensure the reliability of single values. EC50 data were determined by nonlinear regression analysis using GraphPad Prism 5.0. Normality was assessed using a Shapiro-Wilk statistical test. Statistical significance was determined by an unpaired t-test for parametric data and a Mann-Whitney U test for non-parametric data using StatsDirect 2.7.9. P < .05 was taken as showing a significant difference.
# HepG2 cells [2] = assay: Mitochondrial stress test, OCR analysis (Seahorse XFe96); type: cell-based; conditions: vs vehicle control
# Protocol: HepG2 cells were collected by trypsinization and seeded on a collagen-coated XF 96-well cell culture microplate (25 000 cells/100 µl medium/well) and incubated overnight in glucose medium (37 °C, 5% CO2). All assays used ≤ 0.5% DMSO as a vehicle control. Cells were incubated for 1 h (37°C, 0% CO2) before culture medium was replaced by 175 µl of unbuffered Seahorse XF Base medium supplemented with glucose (25 mM), L-glutamine (2 mM), sodium pyruvate (1 mM), pre-warmed to 37 °C (pH 7.4). Prior to measurement of OCR, the Seahorse XFe96 instrument gently mixed the assay medium in each well for 10 min to enable the oxygen partial pressure to reach equilibrium. […] There were 9 OCR measurement cycles following compound injection and each measurement cycle consisted of a 3 min mix and 3 min measure. […] After stress test compound injections there were 3 measurement cycles before the injection of the next stress test compound. This enabled the calculation of basal respiration (OCR prior to oligomycin injection—non-mitochondrial OCR), proton leak (OCR after oligomycin injection—non-mitochondrial OCR), ATP-linked OCR (basal respiration—proton leak—non-mitochondrial OCR), maximal respiration (first injection after FCCP injection—non-mitochondrial OCR) and spare respiratory capacity (maximal respiration—basal respiration) (Figure 2).  FIG. 2 Representative control mitochondrial stress test trace. Mitochondrial stress test assays consisted of a series of compound injections into the cell culture microplate. […] Remaining injections consisted of oligomycin (ATP synthase inhibitor), FCCP (OXPHOS uncoupler), and rotenone/antimycin A (complex I and III inhibitors, respectively) with each followed by 3 measurement cycles. This series of manipulations enabled the calculation of parameters: basal, ATP-linked, maximum, and non-mitochondrial OCR, as well as proton leak. Each measurement cycle was a total of 6 min. Following completion of OCR assays, medium was removed from all wells and 20 µl of somatic cell ATP releasing agent was added to each well before shaking for 1 min and transfer of 10 µl of lysate to a 96-well plate and performance of a BCA assay according to the manufacturer’s instructions. Protein content per well was used to normalize OCR.
# [3] = cited from earlier work
smiles,measurement,setting,value
CC(O)(CS(=O)(=O)c1ccc(F)cc1)C(=O)Nc1ccc(C#N)c(C(F)(F)F)c1 (stereo not shown) [Bicalutamide],EC50ATPglu/EC50ATPgal,HepG2 cells [1],1.44 (0.22)
same,EC50ATPglu/EC50ATPgal,HepG2 cells [1]; listed as bicalutamide,≤ 2
same,decrease in ATP content in galactose medium compared with glucose medium,HepG2 cells [1]; up to 300 µM,this was not the case for bicalutamide
same,EC50,"HepG2 cells [1]; galactose medium, read-out: EC50ATP (μM) Galactose",103 µM
same,EC50,"HepG2 cells [1]; glucose medium, read-out: EC50ATP (μM) Glucose",148 µM
same,basal respiration,"HepG2 cells [2]; glucose medium, 7.8–500 µM",only caused a significant decrease in maximal respiration
same,maximal respiration,"HepG2 cells [2]; glucose medium, 7.8–500 µM",significant decrease
same,ATP-linked OCR as a percentage of maximal respiration,HepG2 cells [2]; up to 500 µM,not observed
same,proton leak as a percentage of maximal respiration,HepG2 cells [2]; up to 500 µM,not observed
same,spare respiratory capacity as a percentage of maximal respiration,HepG2 cells [2]; up to 500 µM,not observed
C[C@](O)(CS(=O)(=O)c1ccc(F)cc1)C(=O)Nc1ccc(C#N)c(C(F)(F)F)c1 [(R)-bicalutamide],half-life,"[3]; single 50 mg dose, ref Cockshott, 2004",140 h
same,Cmax,"[3]; single 50 mg dose, ref Cockshott, 2004, read-out: Cmax",1700 nM
Nc1ccc([N+](=O)[O-])c(C(F)(F)F)c1 [3-trifluoromethyl-4-nitroaniline],Cmax,"[3]; plasma, metabolite after single 250 mg dose of flutamide, ref Schulz et al., 1988, read-out: maximum plasma concentration (Cmax)",1310 nM
